Experiments:
[1] = Drug release from heat-molded pellets in phosphate buffered saline (PBS); type: physicochemical; conditions: heat-molded pellet, 37° C., agitation at 115 rpm, HPLC
Experimental: (§1) Drug release from heat-molded pellets of Compound 1 (FIG. 1A) was assessed in phosphate buffered saline (PBS). Heat-molded pellets (FIG. 1B) were placed in 20 ml glass vials and 2 ml of release buffer was added. Samples were incubated at 37° C. with constant agitation at 115 rpm. Release buffer was sampled and fully replaced with 2 ml of fresh buffer daily with the exception of days 5, 6, 12, 13, and 14 (FIG. 1C). Samples were analyzed by high performance liquid chromatography (HPLC) to quantify drug products (FIG. 1D). Cumulative release was calculated as a percentage of total mass of starting pellets and was plotted over time.
as §1, with “3-7 and Compound 9-12 were” for “1 (FIG. 1A) was”, “pellets” for “pellets (FIG. 1B)”, “on” for “daily with the exception of”, “1, 3, 7, 10,” for “5, 6, 12, 13,”, “14.” for “14 (FIG. 1C).”, “products.” for “products (FIG. 1D).”

[2] = Heat processing of compounds: pellet formation by heat molding; type: physicochemical; conditions: for Pellet formation?: heat molding, cylindrical mold ~1 mm in height x 1 mm in diameter; for Pellet formation by heat molding (result in words): heat molding 10° C. to 30° C. above thermal transition, pressed into cylindrical mold
Experimental: Compounds were formed into pellets by heat molding. Powders of Compound 1-7 and Compounds 9-12 were processed at a temperature from between about 10° C. to 30° C. above their thermal transitions (e.g., glass transition temperature (Tg) for amorphous powders or melting point (Tm) for crystalline powders) of the given compound (e.g., from about 70° C. (Compound 9) to about 220° C. (Compound 2)), and pressed into a cylindrical mold of ˜1 mm in height×1 mm in diameter. Light microscopy was used to capture images of the heat-formed pellets.
These pellets had the appropriate processing properties to be tested as articles for drug delivery applications.
Compounds 16, 22, and 23 were also tested for pellet formation using a similar method as compounds 1-7 and 9-12. […] The recovered form was soft and tacky and could not be easily handled.

SMILES	Release in phosphate buffered saline (PBS): near zero order for [1]	Pellet formation? [2]	Pellet formation by heat molding (result in words) [2]
C=CCN1CC[C@]23c4c5ccc(OC(=O)CCCCC(=O)Oc6ccc7c8c6O[C@H]6C(=O)CC[C@@]9(O)[C@@H](C7)N(CC=C)CC[C@]869)c4O[C@H]2C(=O)CC[C@@]3(O)[C@H]1C5 [Compound 1, bis((4R,4aS,7aR,12bS)-3-allyl-4a-hydroxy-7-oxo-2,3,4,4a,5,6,7,7a-octahydro-1H-4,12-methanobenzofuro[3,2-e]isoquinolin-9-yl) adipate]	Near zero order for > 7 days	✓ (FIG. 1B)	–
O=C(CCCCC(=O)Oc1ccc2c3c1O[C@H]1C(=O)CC[C@@]4(O)[C@@H](C2)N(CC2CC2)CC[C@]314)Oc1ccc2c3c1O[C@H]1C(=O)CC[C@@]4(O)[C@@H](C2)N(CC2CC2)CC[C@]314 [Compound 2, bis((4R,4aS,7aR,12bS)-3-(cyclopropylmethyl)-4a-hydroxy-7-oxo-2,3,4,4a,5,6,7,7a-octahydro-1H-4,12-methanobenzofuro[3,2-e]isoquinolin-9-yl) adipate]	–	–	didn't form a viscous liquid that could be pressed into a pellet
C=C1CC[C@@]2(O)[C@H]3Cc4ccc(OC(=O)CCCCC(=O)Oc5ccc6c7c5O[C@H]5C(=C)CC[C@@]8(O)[C@@H](C6)N(CC6CC6)CC[C@]758)c5c4[C@@]2(CCN3CC2CC2)[C@H]1O5 [Compound 3, bis((4R,4aS,7aS,12bS)-3-(cyclopropylmethyl)-4a-hydroxy-7-methylene-2,3,4,4a,5,6,7,7a-octohydro-1H-4,12-methanobenzofuro[3,2-e]isoquinolin-9-yl) adipate]	Near zero order for > 7 days	✓ (FIG. 4B)	–
C=CCN1CC[C@]23c4c5ccc(OC(=O)CCCCCCCCC(=O)Oc6ccc7c8c6O[C@H]6C(=O)CC[C@@]9(O)[C@@H](C7)N(CC=C)CC[C@]869)c4O[C@H]2C(=O)CC[C@@]3(O)[C@H]1C5 [Compound 4, bis((4R,4aS,7aR,12bS)-3-allyl-4a-hydroxy-7-oxo-2,3,4,4a,5,6,7,7a-octahydro-1H-4,12-methanobenzofuro[3,2-e]isoquinolin-9-yl) decanedioate]	Near zero order for > 7 days	✓ (FIG. 5B)	–
C=CCN1CC[C@]23c4c5ccc(OC(=O)OCC6CCC(COC(=O)Oc7ccc8c9c7O[C@H]7C(=O)CC[C@@]%10(O)[C@@H](C8)N(CC=C)CC[C@]97%10)CC6)c4O[C@H]2C(=O)CC[C@@]3(O)[C@H]1C5 (stereo partly drawn) [Compound 5, bis((4R,4aS,7aR,12bS)-3-allyl-4a-hydroxy-7-oxo-2,3,4,4a,5,6,7,7a-octahydro-1H-4,12-methanobenzofuro[3,2-e]isoquinolin-9-yl) (cyclohexane-1,4-diylbis(methylene)) bis(carbonate)]	Near zero order for > 7 days	–	–
O=C(CCCCCCCCC(=O)Oc1ccc2c3c1O[C@H]1C(=O)CC[C@@]4(O)[C@@H](C2)N(CC2CC2)CC[C@]314)Oc1ccc2c3c1O[C@H]1C(=O)CC[C@@]4(O)[C@@H](C2)N(CC2CC2)CC[C@]314 [Compound 6, bis((4R,4aS,7aR,12bS)-3-(cyclopropylmethyl)-4a-hydroxy-7-oxo-2,3,4,4a,5,6,7,7a-octahydro-1H-4,12-methanobenzofuro[3,2-e]isoquinolin-9-yl) decanedioate]	Near zero order for > 7 days	✓ (FIG. 7B)	–
O=C(Oc1ccc2c3c1O[C@H]1C(=O)CC[C@@]4(O)[C@@H](C2)N(CC2CC2)CC[C@]314)C1CCC(C(=O)Oc2ccc3c4c2O[C@H]2C(=O)CC[C@@]5(O)[C@@H](C3)N(CC3CC3)CC[C@]425)CC1 (stereo partly drawn) [Compound 7, bis((4R,4aS,7aR,12bS)-3-(cyclopropylmethyl)-4a-hydroxy-7-oxo-2,3,4,4a,5,6,7,7a-octahydro-1H-4,12-methanobenzofuro[3,2-e]isoquinolin-9-yl) cyclohexane-1,4-dicarboxylate]	Near zero order for > 7 days	–	–
O=C(Oc1ccc2c3c1O[C@H]1C(=O)CC[C@@]4(O)[C@@H](C2)N(CC2CC2)CC[C@]314)c1ccc(C(=O)Oc2ccc3c4c2O[C@H]2C(=O)CC[C@@]5(O)[C@@H](C3)N(CC3CC3)CC[C@]425)cc1 [Compound 8, bis((4R,4aS,7aR,12bS)-3-(cyclopropylmethyl)-4a-hydroxy-7-oxo-2,3,4,4a,5,6,7,7a-octahydro-1H-4,12-methanobenzofuro[3,2-e]isoquinolin-9-yl) terephthalate]	–	–	did not form a heat processed pellet
O=C(CCCCCCCCCCCCC(=O)Oc1ccc2c3c1O[C@H]1C(=O)CC[C@@]4(O)[C@@H](C2)N(CC2CC2)CC[C@]314)Oc1ccc2c3c1O[C@H]1C(=O)CC[C@@]4(O)[C@@H](C2)N(CC2CC2)CC[C@]314 [Compound 9, bis((4R,4aS,7aR,12bS)-3-(cyclopropylmethyl)-4a-hydroxy-7-oxo-2,3,4,4a,5,6,7,7a-octahydro-1H-4,12-methanobenzofuro[3,2-e]isoquinolin-9-yl) tetradecanedioate]	Near zero order for > 7 days	✓ (FIG. 10B)	–
CCC(C)(CC(=O)Oc1ccc2c3c1O[C@H]1C(=O)CC[C@@]4(O)[C@@H](C2)N(CC2CC2)CC[C@]314)CC(=O)Oc1ccc2c3c1O[C@H]1C(=O)CC[C@@]4(O)[C@@H](C2)N(CC2CC2)CC[C@]314 [Compound 10, bis((4R,4aS,7aR,12bS)-3-(cyclopropylmethyl)-4a-hydroxy-7-oxo-2,3,4,4a,5,6,7,7a-octohydro-1H-4,12-methanobenzofuro[3,2-e]isoquinolin-9-yl) 3-ethyl-3-methylpentonedioate]	Near zero order for > 7 days	✓ (FIG. 11B)	–
O=C(OCCCCCCOC(=O)Oc1ccc2c3c1O[C@H]1C(=O)CC[C@@]4(O)[C@@H](C2)N(CC2CC2)CC[C@]314)Oc1ccc2c3c1O[C@H]1C(=O)CC[C@@]4(O)[C@@H](C2)N(CC2CC2)CC[C@]314 [Compound 11, bis((4R,4aS,7aR,12bS)-3-(cyclopropylmethyl)-4a-hydroxy-7-oxo-2,3,4,4a,5,6,7,7a-octohydro-1H-4,12-methanobenzofuro[3,2-e]isoquinolin-9-yl) hexane-1,6-diyl bis(carbonate)]	Near zero order for > 7 days	✓ (FIG. 12B)	–
O=C(OCC1CCC(COC(=O)Oc2ccc3c4c2O[C@H]2C(=O)CC[C@@]5(O)[C@@H](C3)N(CC3CC3)CC[C@]425)CC1)Oc1ccc2c3c1O[C@H]1C(=O)CC[C@@]4(O)[C@@H](C2)N(CC2CC2)CC[C@]314 (stereo partly drawn) [Compound 12, cyclohexane-1,4-diylbis(methylene) bis((4R,4aS,7aR,12bS)-3-(cyclopropylmethyl)-4a-hydroxy-7-oxo-2,3,4,4a,5,6,7,7a-octohydro-1H-4,12-methanobenzofuro[3,2-e]isoquinolin-9-yl) bis(carbonate)]	Near zero order for > 7 days	–	–
COc1ccc2cc([C@H](C)C(=O)OCC3CCC(COC(=O)[C@@H](C)c4ccc5cc(OC)ccc5c4)CC3)ccc2c1 (stereo partly drawn) [Compound 16, cyclohexane-1,4-diylbis(methylene) (2S,2S)-bis(2-(6-methoxynaphthalen-2-yl)proponoote)]	–	–	deformed during the process of removal from the mold
CCN[C@H]1C[C@H](C)S(=O)(=O)c2sc(S(=O)(=O)NC(=O)OCCCCCCCCOC(=O)NS(=O)(=O)c3cc4c(s3)S(=O)(=O)[C@@H](C)C[C@@H]4NCC)cc21 [Compound 22, 8-(((((4S,6S)-4-(ethylamino)-6-methyl-7,7-dioxido-5,6-dihydro-4H-thieno[2,3-b]thiopyron-2-yl)sulfonyl)carbamoyl)oxy)octyl (((4S,6S)-4-(ethylamino)-6-methyl-7,7-dioxido-5,6-dihydro-4H-thieno[2,3-b]thiopyron-2-yl)sulfonyl)carbomate]	–	–	Neither compound formed a viscous liquid that could be pressed into a pellet

Reference: patent publication US12509469B2, “Compositions and methods for the treatment of pain and dependence disorders” (Ripple Therapeutics Corporation, priority 2019, dated 2025)
